The text below walks through data of ChEMBL document CHEMBL4304740, “Structure-Based Design of Selective β-Site Amyloid Precursor Protein Cleaving Enzyme 1 (BACE1) Inhibitors: Targeting the Flap to Gain Selectivity over BACE2” (J Med Chem, 2019).

A word on the logD: it is the decadic logarithm of the distribution of all forms, ionised or not, between an organic phase and buffer at a given pH. By amount remaining is commonly meant the share of the starting amount still present when the sample was taken. Low readings indicate more turnover, high ones less turnover. By Kp is commonly meant the ratio of the level in a tissue or fluid to that in plasma or blood.

One data set can be described thus: physchem. To be noted: octanol/phosphate buffered saline, pH 7.4.
Data set [1] can be described thus: in vitro. Particulars: human, liver microsomes.
Data set [2] can be described thus: in vitro. To be noted: mouse, liver microsomes.
Another data set in a line: in vivo. To be noted: Crl:CD(ICR), mouse, brain/plasma, po, 30 mg/kg.

Compound `C[C@]1(c2cc(NC(=O)c3cnc(OCF)cn3)ccc2F)N=C(N)SCC12CCOCC2` had a logD in the data set “physchem” of 1.2. Moreover, the fraction remaining at 0.5 h, 0.1 µM in the data set “in vitro [1]” is 51%; in “in vitro [2]” it was 5%.
Turning to `C[C@]1(c2cc(NC(=O)c3cnc(OCF)cn3)ccc2F)N=C(N)SCC12CCC(F)(F)CC2`, the pH-dependent lipophilicity (logD) in the data set “physchem” came out at 2.3. Also, the Kp in “in vivo” worked out at 0.55. Also, the results for the share remaining at 0.5 h, 0.1 µM in “in vitro [1]” and in the data set “in vitro [2]” were 27% and 4.5%, respectively.
